These are literature values, as cited in US10589003B2, “Methods for coating surfaces with antimicrobial agents” (The Board of Regents of the University of Texas System, priority 2005, dated 2020).

This series has as its system Pseudomonas aeruginosa. The note with it: agent on its own; gentian violet after impregnating polymer surfaces incl. polyvinylchloride.

In the case of `CN(C)c1ccc(C(=C2C=CC(=[N+](C)C)C=C2)c2ccc(N(C)C)cc2)cc1` [gentian violet], the “activity against Pseudomonas aeruginosa” value is recorded as “no activity”.
`[H]/N=C(\N/C(=N/[H])NCCCCCCNC(=N)NC(=N)Nc1ccc(Cl)cc1)Nc1ccc(Cl)cc1` [chlorhexidine]: the “activity against Pseudomonas aeruginosa” value is on record as “not highly active”.
